{"source": "patent US20090169478A1", "about": "“In Vivo Imaging and Therapy with Magnetic Nanoparticle Conjugates” (priority 2005, published 2009)", "key": {"rats": {"test_system": "rats", "conditions": "rat, in vivo, iv, 250 mg/kg; cited from earlier work"}, "[1]": {"test_system": "MDA-MB-435S.luc breast cancer cells", "test": "Effect of spacer molecule on cellular iron uptake (Example 27)", "assay_type": "cell-based, human", "conditions": "iron incubation 1 mg/ml, 3 hours; for iron accumulation in the breast cancer cells in the presence of LHRH: free LHRH present", "description": "The effect of a spacer molecule on cellular uptake was tested in vitro on MDA-MB-435S.luc breast cancer cells, which express LHRH receptors. Iron incubation was conducted at 1 mg/ml for different conditions for 3 hours. Accumulation in the breast cancer cells was 82.3±25 pg/cell for SPIONs, 165±16 pg/cell for LHRH−SPIONs, and 223±16 pg/cell with LHRH-Glu-SPION. […] These observations support our hypothesis that iron uptake was driven by receptor-mediated endocytosis."}, "[2]": {"test_system": "MDA-MB-435S.luc tumor bearing mice", "test": "Treatment of tumor-xenografted mice (Example 29)", "assay_type": "in vivo, mouse", "conditions": "for tumor weights at necropsy: tail vein injections at 3, 4 and 5 weeks post-xenograft, 28 days after the start of treatment", "text": "Mice were sacrificed and necropsied 6 weeks post-xenografts. […] Bodyweights, liver weights, and gonadal weights remained stable during all treatments. The breast cancer tumors and metastases were specifically targeted and destroyed by LHRH-conjugated SPIONs carrying a toxin (hecate). The same particles may be used for simultaneous treatment and imaging, e.g., for directly monitoring treatment response in cancer patients."}, "[3]": {"test_system": "Chinese Hamster Ovary cells; mouse Sertoli cells", "test": "In vitro uptake in cell lines that do not express the appropriate receptors", "assay_type": "cell-based", "conditions": "listed as LHRH−SPIONs", "description": "(§1) LHRH−SPIONs and βCG/LH-SPIONs were tested on breast cancer cells MDA-MB-435S, on Chinese Hamster Ovary cells, on rat LH-receptor-transfected Chinese Hamster Ovary cells, and on mouse Sertoli cells. Experiments were conducted in the presence of LHRH, βCG, or neither. […] In addition, we observed that co-incubation with the free peptide ligands blocked the receptors that otherwise enabled the ligand-conjugated SPIONs to enter cells through receptor-mediated endocytosis. The uptake was then primarily via phagocytosis or pinocytosis at a low rate, similar to that for unconjugated SPIONs. The observed uptake was specific; the quantity of iron nanoparticles within the cells was substantially higher for receptor-mediated uptake."}, "[4]": {"test_system": "breast cancer cells MDA-MB-435S", "test": "In vitro uptake of ligand-conjugated SPIONs (Example 10)", "assay_type": "cell-based, human", "conditions": "MDA-MB-435S cells, no free ligand", "description": "as §1"}, "[5]": {"test": "Surface charge of nanoparticles", "assay_type": "physicochemical", "text": "The magnetic nanoparticle preferably comprises primarily Fe3O4, rather than the Fe2O3 that has been used for most prior magnetic nanoparticles. The Fe3O4 particle surface contains amine groups that initially prevent agglomeration, eliminating the need for a coating such as a dextran or other intermediate coatings such as have been used in most prior magnetic nanoparticles. […] The only “coating” that need be used is the targeting agent itself, one with specificity for the target cells (or a combination of targeting agent and toxin or drug). The targeting agent, and the optional toxin or drug are covalently linked to the nanoparticle via amide linkages formed by reaction with the amine groups on the particles. The targeting agent may, for example, be a hormone, ligand, or antibody, or a fragment thereof to assist in selectively directing the particles to the cells of interest and facilitating their intracellular up-take and accumulation. The optional toxin or drug may, for example, be a lytic peptide, other peptide toxin, or other toxin or drug. Our studies have shown that reducing the amount of ligand/coating on the nanoparticles increases macrophage recognition and incorporation. By optionally distancing the ligand from the nanoparticle surface through a spacer molecule, ligand specificity may be retained while increasing cellular uptake. […]"}, "[6]": {"test_system": "MDA-MB-435S.luc xenograft-bearing mouse", "conditions": "250 mg/kg tail vein, 20 hours, 6 mice per group", "description": "The mice were euthanized 20 hours after the injections; and their tumors, lungs, liver, heart, kidney, pancreas, spleen, and gonads were collected. Portions of the organs and tumors were embedded in paraffin and tested for iron using Prussian blue staining."}, "[7]": {"test_system": "tumor-xenograft-bearing mice", "conditions": "2, 10, 30 and 60 days after injection", "description": "Pharmacokinetics of iron nanoparticles. To determine the pharmacokinetic profile of SPIONs and their conjugates, 4 groups of tumor-xenograft-bearing mice (n=10) are injected with the various concentrations of conjugated SPIONs as determined above. A fifth group serves as saline control. The mice are housed for 2, 10, 30, and 60 days after injection, and are then sacrificed to determine iron content in peripheral tissues. This experiment uses 50 female nude mice, and will establish the excretion profile of LHRH−SPIONs over a period of 60 days."}, "[8]": {"test_system": "MDA-MB-435S.luc xenograft-bearing mouse", "test": "Iron content of tissue homogenates, tumor and kidney (Example 9)", "assay_type": "in vivo", "conditions": "250 mg/kg tail vein, 20 hours", "description": "Portions of the tissue samples from Example 8 were homogenized, and iron content was determined in calorimetric assays. The amounts of accumulated iron per gram total organ mass could thus be determined. […] When nanoparticles alone were injected, the iron content in tumors was only about 4%."}, "[9]": {"test_system": "MCF-7, MDA-MB-435S.luc and TM4 cell lines", "test": "In vitro toxicity of constructs on three cell lines, cell line not given", "assay_type": "cell-based", "conditions": "FIG. 4", "text": "FIG. 4 depicts toxicity measurements of different constructs on three cell lines.\nPancreatic, prostate, breast, and lung cancers may be targeted by LHRH, linked to a toxin or drug such as a lytic peptide and to a SPION. In one study we tested the use of LHRH−SPIONs conjugated to a toxin or drug for both treatment and imaging of tumors and metastases. A particle with a ligand and a toxin (drug) may be made in at least three different configurations: ligand-toxin(drug)-SPION, ligand-SPION-toxin(drug), or toxin(drug)-ligand-SPION. […] (The potential construct SPION-LHRH-Hecate was not tested in these experiments.) See FIG. 4. […] Based on the results reported above, the introduction of a spacer is expected to improve ligand-receptor interaction; and, in the case of a lytic peptide, to improve the peptide-membrane interaction. The spacer may also improve plasma stability of the particles."}, "[10]": {"test_system": "mice bearing the MDA-MB-435S.luc tumors", "conditions": "after sequential injections", "text": "See FIGS. 3(a) through (d), showing photographs of Prussian Blue-stained sections from lungs of mice bearing the MDA-MB-435S.luc tumors. FIG. 3(a) depicts a saline-injected control. FIG. 3(b) depicts injection with unconjugated SPIONs. FIGS. 3 (c) and (d) depict injection with conjugated LHRH−SPIONs."}, "[11]": {"test_system": "female nude mice with human breast MDA-MB-435S.luc xenograft", "conditions": "mouse, in vivo", "description": "(§2) Targeting Human Breast Cancer Xenograft and their Metastases with LHRH−SPIONs in vivo. To evaluate the distribution of LHRH−SPIONs and unconjugated SPIONs in vivo, female nude mice with human breast MDA-MB-435S.luc xenograft as described above were injected intravenously with 250 mg/kg LHRH-SPIONs or with unconjugated SPIONs, 35 days after tumor inoculation. The mice were sacrificed 20 h after injection, and the organs and tumors were collected, weighed and analyzed for iron and luciferase. Portions of the organs and tumors were homogenized and their iron content determined spectrophotometrically after reaction with Prussian blue, while other portions were analyzed after fixation by transmission electron microscopy.\nThe design of this cancer model was such that all tumor cells expressed luciferase, meaning that the presence of luciferase was inherently synonymous with the presence of cancer cells. By contrast, the presence of iron was not inherently synonymous with the presence of cancer cells. The goal of this experiment was to test the efficacy of the novel system at specifically delivering iron to cancer cells.\n(§3) Statistical analyses were conducted on raw data by ANOVA. We obtained the ranks of the data, and then conducted a Kruskal-Wallis test. Differences were considered significant at the P<0.05 level. Rank data and variance stabilizing transformations were included."}, "tumor-free mice": {"test_system": "tumor-free mice", "conditions": "mouse, in vivo, iv", "description": "as §2, §3"}, "[12]": {"test_system": "male nude mice bearing tumors from human prostate cancer line PC-3.luc", "conditions": "mouse, in vivo", "from_the_text": "This experiment employed male nude mice bearing tumors from human prostate cancer line PC-3.luc (with luciferase reporter)."}, "human macrophages": {"test_system": "human macrophages", "test": "In vitro macrophage uptake of nanoparticles (Example 26)", "assay_type": "cell-based", "conditions": "iron concentration of 20 μg/mL"}}, "note": "Entries after “also recorded” stand apart in the source; their conditions may differ. Non-standard residues stand in square brackets, D forms with d. Residues, ends and D or L forms follow the SMILES beside them. No end group written: not given here. pGlu = O=C1CC[C@@H](C(=O)O)N1"}
{"compound": "iron oxide nanoparticles", "values": [{"measurement": "adverse effects", "setting": "rats", "result": "no adverse effects"}]}
{"compound": "LHRH-Glu-SPION: LHRH bound to SPION through a glutaric acid spacer (Examples 5 and 7) (QHWSYGLRPG; ends and bridges not checked; also: bound to SPION through a glutaric acid spacer, site not given here; UniProt P01148 24-33, looked up)", "values": [{"measurement": "iron accumulation in the breast cancer cells", "setting": "[1]", "result": "223±16", "unit": "pg/cell"}, {"measurement": "iron accumulation in the breast cancer cells in the presence of LHRH", "setting": "[1]", "result": "123±25", "unit": "pg/cell"}]}
{"compound": "CC(C)C[C@H](NC(=O)[C@H](C)NC(=O)[C@H](CCCCN)NC(=O)[C@H](CCCCN)NC(=O)[C@H](CC(C)C)NC(=O)[C@H](C)NC(=O)[C@H](CCCCN)NC(=O)[C@H](CCCCN)NC(=O)[C@H](CC(C)C)NC(=O)[C@H](CCCCN)NC(=O)[C@H](CCCCN)NC(=O)[C@H](CC(C)C)NC(=O)[C@H](C)NC(=O)[C@H](CCCCN)NC(=O)[C@H](CCCCN)NC(=O)[C@H](CC(C)C)NC(=O)[C@H](C)NC(=O)[C@H](CCCCN)NC(=O)[C@H](CC(C)C)NC(=O)[C@H](C)NC(=O)[C@H](CC(C)C)NC(=O)[C@H](C)NC(=O)[C@H](Cc1ccccc1)NC(=O)CNC(=O)[C@@H]1CCCN1C(=O)[C@H](CCCNC(=N)N)NC(=O)[C@H](CC(C)C)NC(=O)CNC(=O)[C@H](Cc1ccc(O)cc1)NC(=O)[C@H](CO)NC(=O)[C@H](Cc1c[nH]c2ccccc12)NC(=O)[C@H](Cc1c[nH]cn1)NC(=O)[C@@H]1CCC(=O)N1)C(=O)O", "note": "[LHRH-Hecate] ([pGlu]HWSYGLRPGFALALKALKKALKKLKKALKKAL-OH; C-terminus assumed)", "values": [{"measurement": "change of tumor volumes (and tumor weights)", "setting": "[2]; during and after treatment", "result": "arrested at the start of treatment and then diminished significantly; also recorded: decreased"}, {"measurement": "lymph node metastases, assayed by luciferase activity at necropsy", "setting": "[2]; mouse, in vivo", "result": "destroyed"}, {"measurement": "tumor weights at necropsy", "setting": "[2]", "result": "0.07 ± 0.04", "unit": "g"}]}
{"compound": "LHRH−SPION: Fe3O4 magnetite nanoparticles covalently bound to LHRH by carbodiimide reaction (Example 3)", "values": [{"measurement": "ligand-mediated uptake in cell lines that did not express the appropriate receptors", "setting": "[3]", "result": "did not bind and accumulate; also recorded: substantially lower"}, {"measurement": "observed uptake", "setting": "[4]", "result": 452, "unit": "pg Fe/cell"}, {"measurement": "charge of nanoparticles (in words)", "setting": "[5]", "result": "almost neutral"}, {"measurement": "tumors testing positive for iron (Prussian blue staining)", "setting": "[6]", "result": "Four of six"}, {"measurement": "predicted depletion of iron from tumor and metastatic tissues", "setting": "[7]", "result": "slower depletion"}, {"measurement": "predicted iron content in kidney, liver and spleen over time", "setting": "[7]", "result": "decrease rather rapidly with time"}, {"measurement": "iron located in the tumor (estimate of iron content in tumor and kidney)", "setting": "[8]", "result": "up to 70%"}, {"measurement": "tumor weights at necropsy", "setting": "[2]", "result": "0.24 ± 0.09", "unit": "g"}, {"measurement": "toxicity", "setting": "[9]", "result": "not toxic"}, {"measurement": "iron accumulation in the breast cancer cells", "setting": "[1]", "result": "165±16", "unit": "pg/cell"}, {"measurement": "iron accumulation in the breast cancer cells in the presence of LHRH", "setting": "[1]", "result": "106±26", "unit": "pg/cell"}, {"measurement": "retention of nanoparticles inside the target cells", "setting": "[10]", "result": "at least four weeks"}, {"measurement": "fraction of injected particles accumulated in primary tumors and metastases", "setting": "[11]", "result": "up to 60%"}, {"measurement": "relation of level accumulated in the lungs to metastatic load (luciferase activity)", "setting": "[11]", "result": "linear function of the metastatic load"}, {"measurement": "percentage of iron accumulating in kidney", "setting": "[11]; iv, 250 mg/kg", "result": 3.3, "unit": "%"}, {"measurement": "percentage of iron accumulating in lung", "setting": "[11]; iv, 250 mg/kg", "result": 22.2, "unit": "%"}, {"measurement": "percentage of iron accumulating in lung", "setting": "tumor-free mice", "result": 0.9, "unit": "%"}, {"measurement": "accumulation in tumor tissue compared to normal (kidney) tissue", "setting": "[12]", "result": "preferentially accumulate in tumor tissue"}, {"measurement": "difference in macrophage uptake, SPIONs versus LHRH-SPIONs", "setting": "human macrophages", "result": "thirteen-fold"}, {"measurement": "fraction taken up by macrophages", "setting": "human macrophages", "result": "about 5%"}]}
